These results are taken from US20070112035A1, “Substituted oxyarenes” (BAYER CROPSCIENCE AKTIENGESELLSCHAFT, priority 2003, published 2007).

SMILES strings stand for the structures. Read-outs that look alike come from different tables or passages of the source.

The subject of series [1] is fall armyworm larvae (Spodoptera frugiperda). The series can be described thus: Spodoptera frugiperda test (spray treatment). It is filed as in vivo. The following applies: 100 ppm active substance, maize leaf slices. From the text:
Spodoptera frugiperda Test (Spray Treatment) Solvent: 78 Parts by weight of acetone • • 1.5 Parts by weight of dimethylformamide Emulsifier: 0.5 Parts by weight of alkyl-aryl polyglycol ether For the production of a practical active agent preparation, one mixes 1 part by weight of active substance with the specified amount of solvent and emulsifier and dilutes the concentrate to the desired concentration with water containing an emulsifier. Maize leaf slices (Zea mays) are sprayed with an active substance preparation of the desired concentration and filled with fall armyworm larvae (Spodoptera frugiperda) after drying. After the desired time the effect in % is determined. In doing so, 100% means that all larvae were killed; 0% means that no larvae were killed.

Series [2] deals with cabbage moth larvae (Plutella xylostella). The series can be described thus: Plutella test (cabbage leaves, immersion). In kind it is in vivo. As to the method: (§1) Solvent: 7 Parts by weight of dimethylformamide
(§2) Emulsifier: 2 Parts by weight of alkyl-aryl polyglycol ether
(§3) For the production of a practical active agent preparation, one mixes 1 part by weight of active substance with the specified amount of solvent and emulsifier and dilutes the concentrate to the desired concentration with water containing an emulsifier.
Cabbage leaves (Brassica oleracea) are treated through immersion in the active substance preparation of the desired concentration and filled with cabbage moth larvae (Plutella xylostella), while the leaves are still moist.
(§4) After the desired time the mortality in % is determined. In doing so, 100% means that all larvae were killed; 0% means that no larvae were killed.

Series [3] has as its system fall armyworm larvae (Spodoptera exigua). The series can be described thus: Spodoptera exigua test (cabbage leaves, immersion). In kind it is in vivo. How it is done: as §1, §2, §3
Cabbage leaves (Brassica oleracea) are treated through immersion in the active substance preparation of the desired concentration and filled with fall armyworm larvae (Spodoptera exigua), while the leaves are still moist.
as §4

Series [4] deals with Meloidogyne incognita egg/larvae suspension. The series can be described thus: Meloidogyne test (gall formation on lettuce). In kind it is in vivo. Conditions: 20 ppm active substance; nematicidal effect by gall formation, 100% = no galls. From the text:
Meloidogyne Test Solvent: 7 Parts by weight of dimethylformamide Emulsifier: 2 Parts by weight of alkyl-aryl polyglycol ether For the production of a practical active agent preparation, one mixes 1 part by weight of active substance with the specified amount of solvent and emulsifier and dilutes the concentrate to the desired concentration with water. Vessels are filled with sand, active substance solution, Meloidogyne incognita egg/larvae suspension and lettuce seeds. The lettuce seeds germinate and the seedlings grow. The galls grow on the roots. After the desired time, the nematicidal effect is determined by means of gall formation in %. In doing so, 100% means that no galls were found; 0% means that the number of galls on the treated plants corresponds to the untreated control.

Series [5] deals with Heliothis armigera larvae. Nature of the series: Heliothis armigera test (soy sprouts, immersion). In kind it is in vivo. The following applies: Helicoverpa armigera, 168 h, 100 ppm active substance, after 7 days. How it is done: as §1, §2, §3
Soy sprouts (Glycine max) are treated through immersion in the active substance preparation of the desired concentration and filled with Heliothis armigera larvae, while the leaves are still moist.
as §4

Series [6] relates to common spider mite (Tetranychus urticae). Nature of the series: Tetranychus test (OP-resistant/spray treatment). In kind it is in vivo. Conditions: 100 ppm active substance, spray treatment, bean leaf slices, OP-resistant.
Excerpt: Tetranychus Test (OP-Resistant/Spray Treatment)
Solvent: 78 Parts by weight of acetone • • 1.5 Parts by weight of dimethylformamide
Emulsifier: 0.5 Parts by weight of alkyl-aryl polyglycol ether
as §3
Bean leaf slices (Phaseolus vulgaris) that are affected by all stages of the common spider mite (Tetranychus urticae) are sprayed with a active substance preparation of the desired concentration.
After the desired time the effect in % is determined. In doing so, 100% means that all spider mites were killed; 0% means that no spider mites were killed.

The nature of series [7]: log P (physical data). It is filed as physicochemical.
The mark [8] stands for this setting: 100 ppm active substance, after 7 days, cabbage leaves.

The term mortality denotes the share of the test organisms that died.

For `COc1c(Cl)cc(OCC=C(Cl)Cl)cc1C1=NOC(CCCOc2ccc(C(F)(F)F)cn2)C1` (racemic) [Example I-1, (R/S)-3-(2-methoxy-3-chloro-5-(1,1-dichloro-1-propen-3-oxy)-phenyl)-5-((5-trifluormethylpyridin-2-yl)-3-(propyl)ether-1-yl)-Δ^2-isoxazoline], the “Effect in % after 7 days” value in series [1] and in series [6] was 100% in each case. For the same molecule, the mortality at 100 ppm in series [2] (Plutella xylostella, 168 h) came to 100%; in series [3] (Spodoptera exigua, 168 h), 100%; in series [5], 100%. The “Effect in % after 14 days” value in series [4] is listed as 80%.

As for `COc1c(Cl)cc(OCC=C(Cl)Cl)cc1C1=NOC(COc2ccc(C(F)(F)F)cn2)C1` (racemic) [Example I-5, (R/S)-3-(2-methoxy-3-chloro-5-(dichlorpropenoxy)phenyl)-5-((5-trifluormethylpyridin-2-yl)-2-(methyl)ether-1-yl)Δ^2-isoxazoline], the “Effect in % after 7 days” value in series [1] worked out at 10%.

Consider `COc1c(Cl)cc(OCC=C(Cl)Cl)cc1C1=NOC(CCOc2ccc(OCC(F)(F)F)nc2)C1` (racemic) [Example I-6, (R/S)-3-(2-methoxy-3-chloro-5-(dichloropropenoxy)phenyl)-5-((6-trifluorethoxypyridin-3-yl)-2-(ethyl)ether-1-yl)Δ^2-isoxazoline], for which the “Effect in % after 7 days” value in series [1] is reported as 100%. In addition, the mortality in series [2] (setting [8]) and in series [3] (setting [8]) was 100% throughout.

On to `COc1c(Cl)cc(OCC=C(Cl)Cl)cc1C1=NOC(CCCOc2ccc(OCC(F)(F)F)nc2)C1` (racemic) [Example I-7, (R/S)-3-(2-methoxy-3-chloro-5-(dichloropropenoxy)phenyl)-5-((6-trifluorethoxypyridin-3-yl)-3-(propyl)ether-1-yl)Δ^2-isoxazoline], for which the results for the “Effect in % after 7 days” value in series [1] and in series [6] were 100% and 80%, respectively.

On to `COc1c(Cl)cc(OCC=C(Cl)Cl)cc1C1=NOC(CCCCOc2ccc(C(F)(F)F)cn2)C1` (racemic) [Example I-10, (R/S)-3-(2-methoxy-3-chloro-5-(dichloropropenoxy)phenyl)-5-((5-trifluormethylpyridin-2-yl)-4-(butyl)ether-1-yl)Δ^2-isoxazoline], for which the results for the “Effect in % after 7 days” value in series [1] and in series [6] were 100% and 80%, respectively.

With `COc1c(Cl)cc(OCC=C(Cl)Cl)cc1C1=NOC(CCOc2ccc(OCC(F)(F)F)nc2)C1` (racemic) [Example I-11, (R/S)-3-(2-methoxy-3-chloro-5-(dichloropropenoxy)phenyl)-5-((6-trifluorethoxypyridin-3-yl)-2-(ethyl)ether-1-yl)Δ^2-isoxazoline], in series [1], the “Effect in % after 7 days” value was determined as 100%.

Consider `COc1c(Cl)cc(OCC=C(Cl)Cl)cc1-c1cc(CCOc2ccc(C(F)(F)F)cn2)on1` [Example I-9, 3-(2-methoxy-3-chloro-5-(dichloropropenoxy)phenyl)-5-((5-trifluormethylpyridin-2-yl)-2-(ethyl)ether-1-yl)isoxazole], for which the “Effect in % after 7 days” value in series [1] stood at 100%; in series [6] it was 90%.

Turning to `COc1ccc(OCC=C(Cl)Cl)cc1-c1noc(CCCOc2ccc(C(F)(F)F)cn2)n1` [Example I-127, 2-(3-{3-[5-(3,3-dichloro-allyloxy)-2-methoxy-phenyl]-[1,2,4]oxadiazol-5-yl}-propoxy)-5-trifluoromethyl-pyridine], in series [7] (neutral, read-out: log P (neutral)), the logP is 4.93.

On to `COc1c(Cl)cc(OCC=C(Cl)Cl)cc1-c1nc(CCCOc2ccc(C(F)(F)F)cn2)no1` [Example I-128, 2-(3-{5-[3-chloro-5-(3,3-dichloro-allyloxy)-2-methoxy-phenyl]-[1,2,4]oxadiazol-3-yl}-propoxy)-5-trifluoromethyl-pyridine], for which the logP in series [7] (read-out: log P) turned out to be 5.99.

With `COc1c(Cl)cc(OCC=C(Cl)Cl)cc1C1=NC(CO)CO1` (centres unmarked) [{2-[3-chloro-5-(3,3-dichloro-allyloxy)-2-methoxy-phenyl]-4,5-dihydro-oxazol-4-yl}-methanol], the logP in series [7] (pH=2.3, read-out: log P(pH=2.3)) came to 2.05.
